The structures appear in SMILES notation.

Here are results for one compound from patent US20230331674A1 (priority 2020, published 2023).

Series [1] in a line: Plasma protein binding, equilibrium dialysis. As to conditions: pH 7.4, human plasma, 37° C. The format is in vitro ADME. The method, then:
The equilibrium dialysis technique was used to separate the fraction of the bound to human plasma protein. The assay was performed in a 96-well format in a dialysis block constructed from Teflon to minimize the unspecific binding (Banker M. J. et al. J. Pharm. Sci. 2003, 92, 967-974). Plasma from human was used as the default protein containing matrix. […] Acebutolol, quinidine and warfarin were tested in each assay as reference compounds, which yield protein binding that represent low, medium and high bindings to human plasma proteins, respectively. The dialysate compartment was loaded with the phosphate buffered saline (PBS, pH 7.4), and the sample side was loaded with equal volume of the spiked protein matrix. The dialysis plate was then sealed and incubated at 37° C. for 4 h. A control sample (n=2) was prepared from the spiked protein matrix in the same manner as the assay sample (without dialysis). The control sample served as the basis for the recovery determination. After the incubation, samples were taken from each compartment, diluted with phosphate buffer followed by addition of acetonitrile and centrifugation. The supernatants were then used for HPLC-MS/MS analysis using selected reaction monitoring. […]
The recovery determination serves as an indicator of reliability of the calculated protein binding value. […]
(In general: Equilibrium dialysis compares concentrations on both sides of a semipermeable membrane.)

A short description of series [2]: Metabolic stability in cryopreserved hepatocytes. The format is in vitro ADME. As to conditions: both sexes, pH 7.3, human hepatocytes. How it is done:
Cryopreserved hepatocytes (mixed gender and pool of 10 or more) were thawed, washed, and resuspended in Krebs-Heinslet buffer (pH 7.3). […] The reaction was stopped by adding acetonitrile into the incubation mixture. Samples were then mixed, transferred completely to another 96-well plate, and centrifuged. Supernatants were used for HPLC-MS/MS analysis. As reference substances, four compounds were tested in each assay. Propranolol is relatively stable, whereas flurazepam, naloxone and 7-hydroxy-4-trifluoromethylcoumarin (HFC) are readily metabolized in human hepatocytes. In the HPLC-MS/MS analysis peak areas corresponding to the test compounds were recorded. Metabolic stability, expressed as percentage of the parent compound remaining, was calculated by comparing the peak area of the compound at the time point relative to that at time 0. The half-life (t1/2) was estimated from the slope of the initial linear range of the logarithmic curve of the compound remaining (%) versus time, assuming first order kinetics. The apparent intrinsic clearance (Clint in μL/min/million cells) was calculated from the half-life according to the following formula:
Clint=0.693/(t1/2×million cells/μL) (5).

With `COCCN(CC1CCCN(Cc2ccccc2)C1)S(=O)(=O)c1ccc2ccccc2c1` (racemic) [(±)-N-((1-benzylpiperidin-3-yl)methyl)-N-(2-methoxyethyl)naphthalene-2-sulfonamide], the free fraction (fraction unbound) at 4 h, 10 μM in series [1] is 0.04. In series [2] (0.7 million viable cells per mL, read-out: In vitro half-life in cryopreserved hepatocytes), the half-life at 1 μM worked out at 54 min. Further, the intrinsic clearance (hepatocyte CLint) at 1 μM in series [2] (read-out: Hepatocyte clearance (Clint)) was 18.2 µL/min/1e6 cells.

Usually fraction unbound stands for free concentration divided by total concentration. A word on the half-life: it is how long it takes for the measured level to halve. Broadly, the hepatocyte CLint is the rate of metabolic loss divided by the concentration.
